Molecular target: T1, human M2 receptor (Homo sapiens, UniProt P08172)
T1 sequence (P08172 1-466): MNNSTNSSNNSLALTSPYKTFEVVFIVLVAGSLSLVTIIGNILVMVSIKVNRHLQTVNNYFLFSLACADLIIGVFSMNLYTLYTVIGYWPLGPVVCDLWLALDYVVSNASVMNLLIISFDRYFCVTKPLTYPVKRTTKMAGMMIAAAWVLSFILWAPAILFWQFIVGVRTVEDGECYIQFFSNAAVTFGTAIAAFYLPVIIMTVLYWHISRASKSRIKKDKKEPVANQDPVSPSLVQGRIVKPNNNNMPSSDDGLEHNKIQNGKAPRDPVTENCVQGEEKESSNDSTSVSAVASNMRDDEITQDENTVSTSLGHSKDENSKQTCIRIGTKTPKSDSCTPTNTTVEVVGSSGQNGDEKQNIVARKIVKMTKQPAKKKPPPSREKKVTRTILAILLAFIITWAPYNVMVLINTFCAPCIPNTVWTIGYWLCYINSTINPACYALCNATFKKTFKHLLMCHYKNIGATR
Settings: M2-GIRK1/4 reporter cells; for EC50: Receptor activity EC50, allosteric potency at EC20 acetylcholine, in some cases mean of two or more determinations; for Efficiency: boosting of the acetylcholine effect at EC20 acetylcholine concentration; for Emax: read-out: Efficiency, boosting of the acetylcholine effect at EC20 acetylcholine concentration

SMILES	EC50 [nM]	Efficiency [%]	Emax [%]
CCC(NC(=O)c1cn(-c2c(F)cc(F)cc2F)c2nc(N3C[C@@H](O)CC3=O)ccc2c1=O)C(C)C (single isomer, unassigned) [Example 486]	4	100.0	–
CC(NC(=O)c1cn(-c2c(F)cc(F)cc2F)c2nc(N3C[C@@H](O)CC3=O)ccc2c1=O)(C1CC1)C(F)(F)F (single isomer, unassigned) [Example 509]	7	–	88
O=C(NC(CC(F)(F)F)C1CC1)c1cn(-c2c(F)cc(F)cc2F)c2nc(N3C[C@@H](O)CC3=O)ccc2c1=O (single isomer, unassigned) [Example 513]	10	–	91
CC(NC(=O)c1cn(-c2c(F)cc(F)cc2F)c2nc(N3C[C@@H](O)CC3=O)ccc2c1=O)C(F)(F)C(F)(F)F (single isomer, unassigned) [Example 531]	9	97.0	–
O=C(NC(c1ccccc1Cl)C(F)(F)F)c1cn(-c2c(F)cc(F)cc2F)c2nc(N3C[C@@H](O)CC3=O)ccc2c1=O (single isomer, unassigned) [Example 533]	24	–	100
O=C(NC(c1ccccc1Cl)C(F)(F)F)c1cn(-c2c(F)cc(F)cc2F)c2nc(N3C[C@@H](O)CC3=O)ccc2c1=O (single isomer, unassigned) [Example 534]	6	100.0	–
O=C(N[C@@H](C1CC1)C(F)(F)F)c1cn(-c2c(F)cc(F)cc2Cl)c2nc(N3C[C@@H](O)[C@H](O)C3)ccc2c1=O (single isomer, unassigned) [Example 547]	120	–	90
CCC(NC(=O)c1cn(-c2ccc(F)cc2F)c2nc(N3C[C@@H](O)CC3=O)ccc2c1=O)C(F)(F)C(F)(F)F (single isomer, unassigned) [Example 558]	22	100.0	–
O=C(NC(c1ccccc1Cl)C(F)(F)F)c1cn(-c2c(F)cc(F)cc2F)c2nc(N3CCNC3=O)ccc2c1=O (single isomer, unassigned) [Example 564, N-[1-(2-Chlorophenyl)-2,2,2-trifluoroethyl]-4-oxo-7-(2-oxoimidazolidin-1-yl)-1-(2,4,6-trifluorophenyl)-1,4-dihydro-1,8-naphthyridine-3-carboxamide]	42	–	89
O=C(NC(c1ccccc1Cl)C(F)(F)F)c1cn(-c2c(F)cc(F)cc2F)c2nc(N3CCNC3=O)ccc2c1=O (single isomer, unassigned) [Example 565, N-[1-(2-Chlorophenyl)-2,2,2-trifluoroethyl]-4-oxo-7-(2-oxoimidazolidin-1-yl)-1-(2,4,6-trifluorophenyl)-1,4-dihydro-1,8-naphthyridine-3-carboxamide]	10	–	–
CC[C@H](NC(=O)c1cn(-c2c(F)cc(F)cc2Cl)c2nc(N3C[C@@H](O)[C@H](O)C3)ccc2c1=O)C(F)(F)F (single isomer, unassigned) [Example 567]	140	–	80
CC[C@H](NC(=O)c1cn(-c2c(F)cc(F)cc2Cl)c2nc(N3C[C@@H](O)[C@H](O)C3)ccc2c1=O)C(F)(F)F (single isomer, unassigned) [Example 568]	11	100.0	–
CC(C)(CC(F)(F)F)NC(=O)c1cn(-c2c(F)cc(F)cc2F)c2nc(N3CC(O)C4(CC4)C3)ccc2c1=O (single isomer, unassigned) [Example 570, 7-[7-Hydroxy-5-azaspiro[2.4]hept-5-yl]-4-oxo-N-(4,4,4-trifluoro-2-methylbutan-2-yl)-1-(2,4,6-trifluorophenyl)-1,4-dihydro-1,8-naphthyridine-3-carboxamide]	56	–	100
CC(C)(CC(F)(F)F)NC(=O)c1cn(-c2c(F)cc(F)cc2F)c2nc(N3CC(O)C4(CC4)C3)ccc2c1=O (single isomer, unassigned) [Example 571, 7-[7-Hydroxy-5-azaspiro[2.4]hept-5-yl]-4-oxo-N-(4,4,4-trifluoro-2-methylbutan-2-yl)-1-(2,4,6-trifluorophenyl)-1,4-dihydro-1,8-naphthyridine-3-carboxamide]	12	–	–
CCC(COC(F)(F)F)NC(=O)c1cn(-c2c(F)cc(F)cc2F)c2nc(N3C[C@@H](O)[C@H](O)C3)ccc2c1=O (single isomer, unassigned) [Example 577]	20	–	100
CO[C@@H]1CN(c2ccc3c(=O)c(C(=O)N[C@@H](C4CC4)C(F)(F)F)cn(-c4c(F)cc(F)cc4F)c3n2)C[C@H]1O (single isomer, unassigned) [Example 583]	19	–	100
CO[C@@H]1CN(c2ccc3c(=O)c(C(=O)N[C@@H](C4CC4)C(F)(F)F)cn(-c4c(F)cc(F)cc4F)c3n2)C[C@H]1O (single isomer, unassigned) [Example 584, N-[(1 S)-1-Cyclopropyl-2,2,2-trifluoroethyl]-7-[trans-3-hydroxy-4-methoxypyrrolidin-1-yl]-4-oxo-1-(2,4,6-trifluorophenyl)-1,4-dihydro-1,8-naphthyridine-3-carboxamide]	16	98.0	–
O=C(N[C@@H](C1CC1)C(F)(F)F)c1cn(-c2c(F)cc(F)cc2F)c2nc(N3CC(O)C4(CC4)C3)ccc2c1=O (single isomer, unassigned) [Example 601]	73	–	100
O=C(N[C@@H](C1CC1)C(F)(F)F)c1cn(-c2c(F)cc(F)cc2F)c2nc(N3CC(O)C4(CC4)C3)ccc2c1=O (single isomer, unassigned) [Example 602]	23	91.5	–
O=C(NC(CC(F)(F)F)C(F)(F)F)c1cn(-c2c(F)cc(F)cc2F)c2nc(N3C[C@@H](O)CC3=O)ccc2c1=O (single isomer, unassigned) [Example 608]	22	100.0	–
O=C(N[C@@H](C1CC1)C(F)(F)F)c1cn(-c2c(F)cc(F)cc2F)c2nc(N3CC[C@@H](O)[C@H](O)C3)ccc2c1=O (single isomer, unassigned) [Example 616]	37	–	90.5
O=C(N[C@@H](C1CC1)C(F)(F)F)c1cn(-c2c(F)cc(F)cc2F)c2nc(N3CC[C@@H](O)[C@H](O)C3)ccc2c1=O (single isomer, unassigned) [Example 617, N-[(1 S)-1-Cyclopropyl-2,2,2-trifluoroethyl]-7-[trans-3,4-dihydroxypiperidin-1-yl]-4-oxo-1-(2,4,6-trifluorophenyl)-1,4-dihydro-1,8-naphthyridine-3-carboxamide]	96	98.0	–
CC[C@H](NC(=O)c1cn(-c2c(F)cc(F)cc2F)c2nc(N3CC(O)C4(CC4)C3)ccc2c1=O)C(F)(F)F (single isomer, unassigned) [Example 620]	47	–	100
CC(NC(=O)c1cn(-c2ccc(F)cc2F)c2nc(N3C[C@@H](O)CC3=O)ccc2c1=O)C(F)(F)C(F)(F)F (single isomer, unassigned) [Example 623]	67	–	97
CC(NC(=O)c1cn(-c2ccc(F)cc2F)c2nc(N3C[C@@H](O)CC3=O)ccc2c1=O)C(F)(F)C(F)(F)F (single isomer, unassigned) [Example 624]	140	96.5	–
O=C(NC12CC(C1)C2)c1cn(-c2c(F)cc(F)cc2F)c2nc(N3CC(O)C4(CC4)C3)ccc2c1=O (single isomer, unassigned) [Example 627, N-(Bicyclo[1.1.1]pent-1-yl)-7-[7-hydroxy-5-azaspiro[2.4]hept-5-yl]-4-oxo-1-(2,4,6-trifluorophenyl)-1,4-dihydro-1,8-naphthyridine-3-carboxamide]	140	–	83.5
O=C(NC12CC(C1)C2)c1cn(-c2c(F)cc(F)cc2F)c2nc(N3CC(O)C4(CC4)C3)ccc2c1=O (single isomer, unassigned) [Example 628, N-(Bicyclo[1.1.1]pent-1-yl)-7-[7-hydroxy-5-azaspiro[2.4]hept-5-yl]-4-oxo-1-(2,4,6-trifluorophenyl)-1,4-dihydro-1,8-naphthyridine-3-carboxamide]	32	–	–
CC1CC(=O)N(c2ccc3c(=O)c(C(=O)NC(C4CC4)C(F)(F)F)cn(-c4c(F)cc(F)cc4F)c3n2)C1 (stereo in doubt) [Example 420, N-[(1R)-1-cyclopropyl-2,2,2-trifluoroethyl]-7-[4-methyl-2-oxopyrrolidin-1-yl]-4-oxo-1-(2,4,6-trifluorophenyl)-1,4-dihydro-1,8-naphthyridine-3-carboxamide]	16	–	97.5
CC1CN(c2ccc3c(=O)c(C(=O)N[C@@H](C4CC4)C(F)(F)F)cn(-c4c(F)cc(F)cc4F)c3n2)C(=O)O1 (stereo in doubt) [Example 445, N-[(1 S)-1-Cyclopropyl-2,2,2-trifluoroethyl]-7-[(5S)-5-methyl-2-oxo-1,3-oxazolidin-3-yl]-4-oxo-1-(2,4,6-trifluorophenyl)-1,4-dihydro-1,8-naphthyridine-3-carboxamide]	96	97.5	–

Source: US20190367516A1 (Bayer Pharma Aktiengesellschaft, priority 2015, published 2019)
